Measured values taken from US6573275B1, “Bicyclic amines” (Syngenta Limited, priority 1995, dated 2003).

Test system: peach aphid (Myzus persicae)
Test: Insecticidal test against peach aphid, infested Chinese cabbage leaves sprayed
Assay type: in vivo
Conditions: peach aphid (Myzus persicae) on Chinese cabbage leaves, sprayed with 500 ppm composition unless otherwise stated, mortality assessed after 3 days
Procedure, shortened: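 Aphid-infested Chinese cabbage leaves were sprayed with compound at 500 ppm unless otherwise stated, formulated in acetone/ethanol diluted with water containing 0.05% Synperonic NP8. Mortality was assessed after 3 days.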

Row | SMILES | Score (grading of mortality)
1 | CC(C)NC(C)(CN1C2CCC1CC(C#N)(c1cncc(Cl)c1)C2)c1ccccc1 (stereo not drawn) [Compound 191, exo-3-(5-chloropyrid-3-yl)-endo-3-cyano-8-(2-(isopropylamino)-2-phenylprop-1-yl)-8-azabicyclo[3.2.1]octane] | A (A indicates 80-100% mortality)
2 | CC(c1ccccc1)(C(O)C#N)N1C2CCC1CC(C#N)(c1cncc(Cl)c1)C2 (stereo not drawn) [Compound 192, exo-3-(5-chloropyrid-3-yl)-endo-3-cyano-8-(1-hydroxy-1-cyano-2-phenylprop-2-yl)-8-azabicyclo[3.2.1]octane] | A (A indicates 80-100% mortality)
3 | C#Cc1cncc(C2(C#N)CC3CCC(C2)N3C)c1 (stereo not drawn) [Compound 193, exo-3-(5-ethynylpyrid-3-yl)-endo-3-cyano-8-methyl-8-azabicyclo[3.2.1]octane] | A (A indicates 80-100% mortality)
4 | CN1C2CCC1CC(C#N)(c1ccncn1)C2 (stereo not shown) [Compound 194] | A (A indicates 80-100% mortality)
5 | C=C(OCC)c1cncc(C2(C#N)CC3CCC(C2)N3C)c1 (stereo not drawn) [Compound 195, exo-3-(5-(1-ethoxyvinyl)pyrid-3-yl)-endo-3-cyano-8-methyl-8-azabicyclo[3.2.1]octane] | A (A indicates 80-100% mortality)
6 | CCC(C)(C)N1C2CCC1CC(C#N)(c1cccnc1)C2 (stereo not shown) [Compound 196] | A (A indicates 80-100% mortality)
7 | CCOC(=O)C(C)N1C2CCC1CC(C#N)(c1cncc(Cl)c1)C2 (stereo not drawn) [Compound 197, exo-3-(5-chloropyrid-3-yl)-endo-3-cyano-8-(1-(ethoxycarbonyl)ethyl)-8-azabicyclo[3.2.1]octane] | A (A indicates 80-100% mortality)
8 | CN1C2CCC1CC(C#N)(c1ncncc1Br)C2 (stereo not shown) [Compound 198] | A (A indicates 80-100% mortality)
9 | N#CC1(c2cncc(C(F)(F)F)c2)CC2CCC(C1)N2CC(F)(F)F (stereo not shown) [Compound 199] | A (A indicates 80-100% mortality)
10 | CN1C2CCC1CC(C#N)(c1cc(-c3ccncn3)ncn1)C2 (stereo not shown) [Compound 200] | A (A indicates 80-100% mortality)
11 | CC(=O)c1cncc(C2(C#N)CC3CCC(C2)N3C)c1 (stereo not drawn) [Compound 201, exo-3-(5-acetylpyrid-3-yl)-endo-3-cyano-8-methyl-8-azabicyclo[3.2.1]octane] | A (A indicates 80-100% mortality)
12 | CN1C2CCC1CC(C#N)(c1cncc(F)c1)C2 (stereo not drawn) [Compound 202, exo-3-(5-fluoropyrid-3-yl)-endo-3-cyano-8-methyl-8-azabicyclo[3.2.1]octane] | A (A indicates 80-100% mortality)
13 | N#CC1(c2cncc(Br)c2)CC2CCC(C1)N2 (stereo not shown) [Compound 203] | A (A indicates 80-100% mortality)
14 | N#CC1(c2cncc(Br)c2)CC2CCC(C1)N2Cc1ccccc1Cl (stereo not shown) [Compound 204] | A (A indicates 80-100% mortality)
15 | CC(C)(c1cccc(Cl)c1)N1C2CCC1CC(C#N)(c1cncc(Cl)c1)C2 (stereo not shown) [Compound 205] | A (A indicates 80-100% mortality)
16 | CN1C2CCC1CC(C#N)(c1cncc(C(C)(C)O)c1)C2 (stereo not shown) [Compound 206] | A (A indicates 80-100% mortality)
17 | C#CC(C)(C)N1C2CCC1CC(C#N)(c1cncc(Cl)c1)C2 (stereo not shown) [Compound 207] | A (A indicates 80-100% mortality)
18 | CCOC(=O)N1C2CCC1CC(C#N)(c1cncc(Br)c1)C2 (stereo not shown) [Compound 208] | A (A indicates 80-100% mortality)
19 | CC(C)(N1C2CCC1CC(C#N)(c1cncc(Cl)c1)C2)C(F)(F)F (stereo not drawn) [Compound 209, exo-3-(5-chloropyrid-3-yl)-endo-3-cyano-8-(1,1-dimethyl-2,2,2-trifluoroethyl)-8-azabicyclo[3.2.1]octane] | A (A indicates 80-100% mortality)
20 | CC(C)CN1C2CCC1CC(C#N)(c1cncc(Br)c1)C2 (stereo not shown) [Compound 210] | A (A indicates 80-100% mortality)
21 | COc1cncc(C2(C#N)CC3CCC(C2)N3C)n1 (stereo not shown) [Compound 214] | A (A indicates 80-100% mortality)
22 | N#CC(c1cccc(Cl)c1)N1C2CCC1CC(C#N)(c1cncc(Cl)c1)C2 (stereo not shown) [Compound 215] | A (A indicates 80-100% mortality)
23 | C=COC(=O)N1C2CCC1CC(C#N)(c1cncc(-c3ccccc3)c1)C2 (stereo not drawn) [Compound 217, exo-3-(5-phenylpyrid-3-yl)-endo-3-cyano-8-(vinyloxycarbonyl)-8-azabicyclo[3.2.1]octane] | A (A indicates 80-100% mortality)
24 | N#CC1(c2cncc(Cl)c2)CC2CCC(C1)N2CCC=C(F)F (stereo not shown) [Compound 218] | A (A indicates 80-100% mortality)
25 | N#CC1(c2cncc(-c3ccccc3)c2)CC2CCC(C1)N2 (stereo not drawn) [Compound 220, exo-3-(5-phenylpyrid-3-yl)-endo-3-cyano-8-azabicyclo[3.2.1]octane] | A (A indicates 80-100% mortality)
26 | C=COC(=O)N1C2CCC1CC(C#N)(c1cncc(C)c1)C2 (stereo not drawn) [Compound 221, exo-3-(5-methylpyrid-3-yl)-endo-3-cyano-8-(vinyloxycarbonyl)-8-azabicyclo[3.2.1]octane] | A (A indicates 80-100% mortality)
27 | C=COC(=O)N1C2CCC1CC(C#N)(c1cncc(C(=O)OCC)c1)C2 (stereo not drawn) [Compound 222, exo-3-(5-(ethoxycarbonyl)pyrid-3-yl)-endo-3-cyano-8-(vinyloxycarbonyl)-8-azabicyclo[3.2.1]octane] | C (C indicates less than 40% mortality)
28 | CC(C)(C#N)N1C2CCC1CC(C#N)(c1cncc(Cl)c1)C2 (stereo not drawn) [Compound 223, exo-3-(5-chloropyrid-3-yl)-endo-3-cyano-8-(2-cyanoprop-2-yl)-8-azabicyclo[3.2.1]octane] | C (C indicates less than 40% mortality)

Row | SMILES | Score (grading of mortality)
29 | CCOC(=O)c1cncc(C2(C#N)CC3CCC(C2)N3)c1 (stereo not shown) [Compound 225] | A (A indicates 80-100% mortality)
30 | N#CC1(c2cncc(Cl)c2)CC2CCC(C1)N2Cc1cc(C(F)(F)F)cc(C(F)(F)F)c1 (stereo not shown) [Compound 227] | A (A indicates 80-100% mortality)
31 | N#CC1(c2cncc(Cl)c2)CC2CCC(C1)N2Cc1c(F)cccc1F (stereo not shown) [Compound 228] | A (A indicates 80-100% mortality)
32 | N#CC1(c2cncc(Cl)c2)CC2CCC(C1)N2Cc1cccc(Oc2ccccc2)c1 (stereo not shown) [Compound 229] | A (A indicates 80-100% mortality)
33 | N#CC1(c2cncc(Cl)c2)CC2CCC(C1)N2Cc1ccc(F)c(Br)c1 (stereo not shown) [Compound 230] | A (A indicates 80-100% mortality)
34 | N#CC1(c2cncc(Cl)c2)CC2CCC(C1)N2Cc1cccc(C(=O)c2ccccc2)c1 (stereo not shown) [Compound 231] | A (A indicates 80-100% mortality)
35 | N#CC1(c2cncc(Cl)c2)CC2CCC(C1)N2Cc1cccc(C(=O)c2c(Cl)cccc2Cl)c1 (stereo not shown) [Compound 232] | A (A indicates 80-100% mortality)
36 | N#CC1(c2cncc(Cl)c2)CC2CCC(C1)N2Cc1cccc(C(=O)c2c(F)cccc2F)c1 (stereo not shown) [Compound 233] | A (A indicates 80-100% mortality)
37 | C=CCc1c(F)c(F)c(CN2C3CCC2CC(C#N)(c2cncc(Cl)c2)C3)c(F)c1F (stereo not shown) [Compound 234] | A (A indicates 80-100% mortality)
38 | N#CC1(c2cncc(Cl)c2)CC2CCC(C1)N2Cc1cccc(OC(F)(F)F)c1 (stereo not shown) [Compound 235] | A (A indicates 80-100% mortality)
39 | N#CC1(c2cncc(Cl)c2)CC2CCC(C1)N2Cc1cccc2ccccc12 (stereo not shown) [Compound 236] | A (A indicates 80-100% mortality)
40 | N#C[C@@]1(c2cncc(Cl)c2)C[C@H]2CC[C@@H](C1)N2Cc1ccccc1 [Compound 237, exo-3-(5-chloropyrid-3-yl)-endo-3-cyano-8-benzyl-8-azabicyclo[3.2.1]octane] | A (A indicates 80-100% mortality)
41 | N#CC1(c2cncc(Cl)c2)CC2CCC(C1)N2Cc1ccccc1Br (stereo not shown) [Compound 238] | A (A indicates 80-100% mortality)
42 | Cc1ccccc1CN1C2CCC1CC(C#N)(c1cncc(Cl)c1)C2 (stereo not shown) [Compound 239] | A (A indicates 80-100% mortality)
43 | N#CC1(c2cncc(Cl)c2)CC2CCC(C1)N2Cc1cccc(Br)c1 (stereo not shown) [Compound 240] | A (A indicates 80-100% mortality)
44 | COC(=O)c1cccc(CN2C3CCC2CC(C#N)(c2cncc(Cl)c2)C3)c1 (stereo not shown) [Compound 241] | A (A indicates 80-100% mortality)
45 | Cc1cccc(CN2C3CCC2CC(C#N)(c2cncc(Cl)c2)C3)c1 (stereo not shown) [Compound 242] | A (A indicates 80-100% mortality)
46 | N#CC1(c2cncc(Cl)c2)CC2CCC(C1)N2Cc1ccc(Br)cc1 (stereo not shown) [Compound 243] | A (A indicates 80-100% mortality)
47 | CC(C)(C)C(=O)c1ccc(CN2C3CCC2CC(C#N)(c2cncc(Cl)c2)C3)cc1 (stereo not shown) [Compound 245] | A (A indicates 80-100% mortality)
48 | CC(C)(C)c1ccc(CN2C3CCC2CC(C#N)(c2cncc(Cl)c2)C3)cc1 (stereo not shown) [Compound 246] | A (A indicates 80-100% mortality)
49 | CC(C)c1ccc(CN2C3CCC2CC(C#N)(c2cncc(Cl)c2)C3)cc1 (stereo not shown) [Compound 247] | A (A indicates 80-100% mortality)
50 | Cc1ccc(CN2C3CCC2CC(C#N)(c2cncc(Cl)c2)C3)cc1 (stereo not shown) [Compound 248] | A (A indicates 80-100% mortality)
51 | N#CC1(c2cncc(Cl)c2)CC2CCC(C1)N2Cc1ccc(F)c(F)c1 (stereo not shown) [Compound 249] | A (A indicates 80-100% mortality)
52 | N#CC1(c2cncc(Cl)c2)CC2CCC(C1)N2Cc1ccccc1F (stereo not shown) [Compound 250] | A (A indicates 80-100% mortality)
53 | N#CC1(c2cncc(Cl)c2)CC2CCC(C1)N2Cc1cc(F)cc(Br)c1 (stereo not shown) [Compound 251] | A (A indicates 80-100% mortality)
54 | N#CC1(c2cncc(Cl)c2)CC2CCC(C1)N2Cc1ccc(F)cc1F (stereo not shown) [Compound 252] | A (A indicates 80-100% mortality)
55 | N#CC1(c2cncc(Cl)c2)CC2CCC(C1)N2Cc1cccc(F)c1 (stereo not shown) [Compound 253] | A (A indicates 80-100% mortality)
